In patent US5968910A, “Compositions containing two or three inhibitors of different HIV reverse transcriptases” (priority 1994, dated 1999):
≈ marks a conversion by molar mass, not a printed value. Read-outs that look alike come from different tables or passages of the source.

Legend:
[1] = tested on: HIV-1/TIBO R82150 (100-Ile); conditions: background, Balzarini I/II; cited from earlier work
[2] = tested on: HIV-1/II(0.1) 100-Ile; assay: Sensitivity of mutant HIV-1 strain in CEM cell cultures; type: cell-based; conditions: Human immunodeficiency virus 1, CCRF-CEM; Table 5; read-out: EC50
Experimental: (§1) CEM cells were suspended at 250,000 cells per ml of culture medium and infected with wild-type HIV-I(IIIB) or mutant HIV-1 strains at 100 50% cell culture infective doses per ml. Then 100 μl of the infected cell suspensions was added to 200-μl microtiter plate wells containing 100 μl of an appropriate dilution of the test compounds. After 4 days incubation at 37° C., the cell cultures were examined for syncytium formation.

[3] = tested on: HIV-1/TIBO R82150 (100-Ile); assay: as above; type: cell-based; conditions: Human immunodeficiency virus 1, CCRF-CEM; CEM cells, Table 1; read-out: 50% Effective Concentration
Experimental: as §1

[4] = tested on: HIV-1/I(0.1) 103-Asn; assay: as above; type: cell-based; conditions: Human immunodeficiency virus 1, CCRF-CEM; Table 5; read-out: EC50
Experimental: as §1

[5] = tested on: HIV-1/TSAO-m^3 T (138-Lys); assay: as above; type: cell-based; conditions: Human immunodeficiency virus 1, CCRF-CEM; CEM cells, Table 1; read-out: 50% Effective Concentration
Experimental: as §1

[6] = tested on: HIV-1/TIBO R82913 (103-Asn); assay: as above; type: cell-based; conditions: Human immunodeficiency virus 1, CCRF-CEM; CEM cells, Table 1; read-out: 50% Effective Concentration
Experimental: as §1

[7] = tested on: HIV-1/V(0.5) 103-Asn; assay: as above; type: cell-based; conditions: Human immunodeficiency virus 1, CCRF-CEM; Table 5; read-out: EC50
Experimental: as §1

[8] = tested on: HIV-1/B 101Glu; assay: as above; type: cell-based; conditions: Human immunodeficiency virus 1, CCRF-CEM; Table 5; read-out: EC50
Experimental: as §1

[9] = tested on: HIV-1/Pyr (181-Cys); assay: as above; type: cell-based; conditions: Human immunodeficiency virus 1, CCRF-CEM; CEM cells, Table 1; read-out: 50% Effective Concentration
Experimental: as §1

[10] = tested on: HIV-1/III(0.1) 103-Asn; assay: as above; type: cell-based; conditions: Human immunodeficiency virus 1, CCRF-CEM; Table 5; read-out: EC50
Experimental: as §1

[11] = tested on: HIV-1/IV(0.1) 103-Thr; assay: as above; type: cell-based; conditions: Human immunodeficiency virus 1, CCRF-CEM; Table 5; read-out: EC50
Experimental: as §1

[12] = tested on: HIV-1/Nev (106-Ala); assay: as above; type: cell-based; conditions: Human immunodeficiency virus 1, CCRF-CEM; CEM cells, Table 1; read-out: 50% Effective Concentration
Experimental: as §1

[13] = tested on: HIV-1/V(0.1) 101-Ile + 141-Glu; assay: as above; type: cell-based; conditions: Human immunodeficiency virus 1, CCRF-CEM; Table 5; read-out: EC50
Experimental: as §1

[14] = tested on: HIV-1(IIIB) (WT); assay: microbe, parasite or virus in culture; type: cell-based; conditions: Human immunodeficiency virus 1, IIIB, CCRF-CEM
Experimental: as §1

[15] = molecular target: HIV-1 RT (WT) (Human immunodeficiency virus type 1 group M subtype B, UniProt P03366); assay: biochemical; conditions: IC50, anti-HIV-1 RT (WT) activity
Experimental: The reaction mixture (50 μl) contained 50 mM Tris.HCl, pH 7.8, 5 mM dithiothreitol, […] glutathione, 500 μM EDTA, 150 mM KCl, 5 mM MgCl2, 1.25 μg of bovine serum albumin, a fixed concentration of the labeled substrate [2,8-^3 H]dGTP (2.95 μM, 2 μCi), a fixed concentration of the template/primer poly(C).oligo(dG) (0.1 mM), 0.06% Triton X-100, 5 μl of inhibitor solution [containing various concentrations (5-fold dilutions) of the test compounds], and 5 μl of the RT preparation. The reaction mixtures were incubated at 37° C. for 30 min, at which time 100 μl of calf thymus DNA (150 μg/ml), 2 ml of Na4 P2 07 (0.1 M in 1M HCl), and 2 ml of trichloroacetic acid (10%, v/v) were added. The solutions were kept on ice for 30 min, after which the acid-insoluble material was washed and analyzed for radioactivity.
Compounds I, III, IV and V were evaluated for their inhibitory effect on recombinant HIV-1 RT.

Q: For `CC(C)=CCN1Cc2cccc3[nH]c(=S)n(c23)C[C@@H]1C` [Compound R82150], which “resistance of HIV-1 strains containing the 100 Leu→Ile mutation in their RT” value [1] is on record?
A: resistant

Q: Which EC50 [2] does the source give for `CCc1cc(NCc2nc3c(Cl)ccc(Cl)c3o2)c(O)nc1C` [Pyridinone L-697,661, 3-{[(4,7-dichloro-1,3-benzoxazol-2-yl)methyl]amino}-5-ethyl-6-methylpyridin-2(1H)-one, reference compound] here?
A: 0.63 µg/mL (≈ 1.79 µM)

Q: What about the EC50 [3] of the same compound?
A: 0.18 µg/mL (≈ 0.511 µM)

Q: And the EC50 [4]?
A: 0.3 µg/mL (≈ 0.852 µM)

Q: And the EC50 [5]?
A: 0.17 µg/mL (≈ 0.483 µM)

Q: And the EC50 [6]?
A: 0.5 µg/mL (≈ 1.42 µM)

Q: What about the EC50 [7] of the same compound?
A: 0.55 µg/mL (≈ 1.56 µM)

Q: And the EC50 [8]?
A: 0.035 µg/mL (≈ 0.0994 µM)

Q: What about the EC50 [9] of the same compound?
A: 3.67 µg/mL (≈ 10.4 µM)

Q: And the EC50 [10]?
A: 0.03 µg/mL (≈ 0.0852 µM)

Q: What about the EC50 [11] of the same compound?
A: 0.5 µg/mL (≈ 1.42 µM)

Q: What about the EC50 [12] of the same compound?
A: 0.24 µg/mL (≈ 0.681 µM)

Q: What about the EC50 [13] of the same compound?
A: 0.08 µg/mL (≈ 0.227 µM)

Q: What about the EC50 ([14]; CEM cells, Table 1, read-out: 50% Effective Concentration) of the same compound?
A: 0.007 µg/mL (≈ 0.0199 µM)

Q: And the EC50 ([14]; HIV-1 (III8), Table 5, read-out: EC50)?
A: 0.007 µg/mL (≈ 0.0199 µM)

Q: What about the IC50 [15] of the same compound?
A: 1080 nM
